Four compounds from ChEMBL document CHEMBL5034036, “Aryloxy Pivaloyloxymethyl Prodrugs as Nucleoside Monophosphate Prodrugs” (J Med Chem, 2021) can be followed below.

The subject of data set [1] is MCF7. The data set can be described thus: Cytotoxicity against human MCF7 cells assessed as inhibition of cell proliferation measured after 24 hrs by MTT assay. The data set is classed as functional, cell-based. Conditions: MCF7, 24 h. On the technique in general: Tetrazolium assays rely on reduction of a dye to a coloured formazan, in cell work by metabolically active cells.

Data set [2] deals with A549. The data set can be described thus: Cytotoxicity against human A549 cells after 48 hrs measured by MTT assay. The data set is classed as functional, cell-based. The conditions noted are these: A549, 48 h.
For data set [3], the system named is A549. The data set can be described thus: Cytotoxicity against human A549 cells after 24 hrs measured by MTT assay. The data set is classed as functional, cell-based. Conditions: A549, 24 h.
Data set [4] has as its system MCF7. The data set can be described thus: Cytotoxicity against human MCF7 cells assessed as inhibition of cell proliferation measured after 48 hrs by MTT assay. The data set is classed as functional, cell-based. Conditions: MCF7, 48 h.
Data set [5] in a line: Serum stability of the compound in human serum assessed as half life measured by 31P-NMR analysis. The data set is classed as ADME, cell-free.
The nature of data set [6]: Drug metabolism in human serum assessed as metabolite B formation by 31P-NMR analysis. The data set is classed as ADME, cell-free.
A short description of data set [7]: Drug metabolism assessed as recombinant carboxypeptidase Y-mediated metabolite formation measured measured by 31P-NMR analysis. The data set is classed as ADME. Conditions: saccharomyces cerevisiae.
A further data set addresses T1, Liver carboxylesterase (Sus scrofa, UniProt Q29550).
T1 sequence (Q29550 whole entry): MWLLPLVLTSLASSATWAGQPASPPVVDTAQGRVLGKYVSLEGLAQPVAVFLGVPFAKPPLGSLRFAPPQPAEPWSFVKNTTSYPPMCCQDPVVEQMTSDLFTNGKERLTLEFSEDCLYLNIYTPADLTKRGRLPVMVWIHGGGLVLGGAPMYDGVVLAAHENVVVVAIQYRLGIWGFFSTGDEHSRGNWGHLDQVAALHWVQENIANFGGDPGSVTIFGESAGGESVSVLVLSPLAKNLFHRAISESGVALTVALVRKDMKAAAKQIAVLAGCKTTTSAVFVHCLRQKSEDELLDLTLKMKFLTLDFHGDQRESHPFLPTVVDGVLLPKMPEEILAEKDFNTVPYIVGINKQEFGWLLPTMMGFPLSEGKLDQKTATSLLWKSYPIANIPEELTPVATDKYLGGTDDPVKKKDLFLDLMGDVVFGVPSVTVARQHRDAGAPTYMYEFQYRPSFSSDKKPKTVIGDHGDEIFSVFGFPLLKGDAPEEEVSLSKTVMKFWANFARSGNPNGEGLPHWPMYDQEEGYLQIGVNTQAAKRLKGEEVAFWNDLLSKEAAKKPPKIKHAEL
Kind of data set: Stability in porcine liver esterase assessed as intact compound measured by NMR analysis. The data set is classed as ADME. Conditions: pig.

`COC(=O)[C@H](C)NP(=O)(OC[C@H]1O[C@@H](n2cc(F)c(=O)[nH]c2=O)C[C@@H]1O)Oc1ccccc1` (stereo partly drawn): the IC50 (as a rule, the concentration at which inhibition is half-maximal) with MCF7 [1] was above 100 µM; with A549 [2], 36 µM; with A549 [3], 69.5 µM; in the data set on MCF7 [4] it was 84.8 µM.
On to `CC(C)(C)C(=O)OCOP(=O)(OC[C@H]1O[C@@H](n2cc(F)c(=O)[nH]c2=O)C[C@@H]1O)Oc1ccccc1` (stereo partly drawn), for which the IC50 in the data set with MCF7 [1] came to 63.6 µM; in the data set with MCF7 [4], 13.1 µM. The half-life (commonly the time in which the quantity being followed falls by half) in data set [5] is at least 12 h. Also, the Drug metabolism entry in data set [6] was “Metabolite_Detected”; in data set [7] it was “Metabolite_Notdetected”. For the same compound, on Liver carboxylesterase, the Stability result is “Stable”.
`CC(C)(C)C(=O)OCOP(=O)(OC[C@H]1O[C@@H](n2cc(F)c(=O)[nH]c2=O)C[C@@H]1O)Oc1cccc2ccccc12` (stereo partly drawn): the IC50 in the data set on MCF7 [1] amounted to 28.8 µM; in the data set on A549 [2] it was 34.5 µM; in the data set on A549 [3], 52.5 µM; in the data set on MCF7 [4] it was 35.5 µM.
The like results for `O=c1[nH]c(=O)n([C@H]2C[C@H](O)[C@@H](CO)O2)cc1F` [FLOXURIDINE] were, in that order, above 100 µM, above 100 µM, above 100 µM and 46.9 µM.
